Biological target: GluA1o-γ8 (GRIA1o-CACNG8 fusion construct; TARP γ8 dependent AMPA receptor) (Homo sapiens (Human), UniProt P42261+Q8WXS5)
Experiment: Calcium flux assay (FLIPR), inhibition of glutamate response of GluA1o-γ8 channel
Type: cell-based
Conditions: HEK293 cells stably expressing GRIA1o-CACNG8 fusion; 15 μM glutamate; pIC50 = negative log of IC50 in molar; read-out: GluR1-γ8 (pIC50) (converted)
Outline: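 Potency is the midpoint of a four-parameter logistic fit to control-normalized FLIPR calcium responses elicited by 15 μM glutamate. Stable HEK293 cells carried a fused GluA1o-γ8 construct and were preincubated with compound and calcium dye in pH 7.4 HEPES buffer.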

Chain of GluA1o-γ8 (GRIA1o-CACNG8 fusion construct; TARP γ8 dependent AMPA receptor) (P42261 other isoform, or with tags, fused parts or gaps): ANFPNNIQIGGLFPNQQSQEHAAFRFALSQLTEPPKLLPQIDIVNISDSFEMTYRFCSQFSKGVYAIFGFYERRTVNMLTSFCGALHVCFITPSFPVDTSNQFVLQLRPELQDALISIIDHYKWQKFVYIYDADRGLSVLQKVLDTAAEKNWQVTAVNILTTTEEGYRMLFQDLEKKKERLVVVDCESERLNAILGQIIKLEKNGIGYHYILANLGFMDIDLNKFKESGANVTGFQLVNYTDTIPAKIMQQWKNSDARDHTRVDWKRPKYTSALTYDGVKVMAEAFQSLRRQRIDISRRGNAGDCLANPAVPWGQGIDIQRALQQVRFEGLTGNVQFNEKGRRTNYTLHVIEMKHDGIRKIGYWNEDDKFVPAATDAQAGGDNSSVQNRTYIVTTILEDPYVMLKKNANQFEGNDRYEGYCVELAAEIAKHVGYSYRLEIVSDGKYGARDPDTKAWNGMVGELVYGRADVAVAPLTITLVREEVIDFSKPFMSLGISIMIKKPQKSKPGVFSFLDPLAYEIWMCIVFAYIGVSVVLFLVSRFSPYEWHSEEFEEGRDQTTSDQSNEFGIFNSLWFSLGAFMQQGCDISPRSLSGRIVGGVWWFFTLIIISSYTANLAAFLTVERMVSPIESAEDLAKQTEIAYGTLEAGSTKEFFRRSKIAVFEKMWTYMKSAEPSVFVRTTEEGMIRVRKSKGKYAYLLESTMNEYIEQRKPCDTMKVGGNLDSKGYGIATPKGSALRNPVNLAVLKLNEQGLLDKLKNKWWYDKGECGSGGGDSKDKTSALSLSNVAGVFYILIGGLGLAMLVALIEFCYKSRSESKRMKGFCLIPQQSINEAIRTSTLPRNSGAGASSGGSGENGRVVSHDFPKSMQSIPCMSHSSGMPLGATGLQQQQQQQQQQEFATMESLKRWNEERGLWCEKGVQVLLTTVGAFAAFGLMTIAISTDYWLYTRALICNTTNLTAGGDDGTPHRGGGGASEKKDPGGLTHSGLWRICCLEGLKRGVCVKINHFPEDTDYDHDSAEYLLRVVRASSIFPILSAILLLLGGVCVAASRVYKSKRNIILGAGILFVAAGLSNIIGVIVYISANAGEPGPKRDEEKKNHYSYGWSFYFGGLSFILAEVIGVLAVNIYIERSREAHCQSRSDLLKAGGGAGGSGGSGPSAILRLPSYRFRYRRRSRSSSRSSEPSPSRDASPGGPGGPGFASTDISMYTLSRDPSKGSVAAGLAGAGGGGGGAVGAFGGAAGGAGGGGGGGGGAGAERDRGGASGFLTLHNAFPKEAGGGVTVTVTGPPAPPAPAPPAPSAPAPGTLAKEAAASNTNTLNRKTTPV

IC50 [nM] | SMILES
63.1 | CC(C)(C)c1nn2c(N3CCOCC3)nccc2c1-c1ccc2c(c1)CC(=O)N2 [Example 182, 5-(2-tert-Butyl-7-morpholino-pyrazolo[1,5-c]pyrimidin-3-yl)indolin-2-one]
63.1 | CC(C)(C)c1nn2c(N3CC(F)(F)C3)nccc2c1-c1ccc2c(c1)CC(=O)N2 [Example 183, 5-[2-tert-Butyl-7-(3,3-difluoroazetidin-1-yl)pyrazolo[1,5-c]pyrimidin-3-yl]indolin-2-one]
3.16 | CC1(O)CN(c2nccc3c(-c4ccc5c(c4)CC(=O)N5)c(-c4ccc(F)cc4)nn23)C1 [Example 184, 5-[2-(4-Fluorophenyl)-7-(3-hydroxy-3-methyl-azetidin-1-yl)pyrazolo[1,5-c]pyrimidin-3-yl]indolin-2-one]
0.158 | O=C1Cc2cc(-c3c(-c4ccc(F)cc4)nc4c(N5CCC6(CC5)N=N6)nccn34)ccc2N1 [Example 185, 5-(2-(4-Fluorophenyl)-8-(1,2,6-triazaspiro[2.5]oct-1-en-6-yl)imidazo[1,2-a]pyrazin-3-yl)indolin-2-one]
0.2 | CC1(O)CCN(c2nccc3c(-c4ccc5c(c4)CC(=O)N5)c(-c4ccc(F)cc4)nn23)CC1 [Example 186, 5-[2-(4-Fluorophenyl)-7-(4-hydroxy-4-methyl-1-piperidyl)pyrazolo[1,5-c]pyrimidin-3-yl]indolin-2-one]
0.158 | O=C1Cc2cc(-c3c(-c4ccccc4)nn4c(N5CCC(O)CC5)nccc34)ccc2N1 [Example 187, 5-[7-(4-Hydroxy-1-piperidyl)-2-phenyl-pyrazolo[1,5-c]pyrimidin-3-yl]indolin-2-one]
0.501 | O=C1Cc2cc(-c3c(-c4ccccc4)nn4c(N5CCC(F)CC5)nccc34)ccc2N1 [Example 188, 5-[7-(4-Fluoro-1-piperidyl)-2-phenyl-pyrazolo[1,5-c]pyrimidin-3-yl]indolin-2-one]
0.158 | COC1CCN(c2nccc3c(-c4ccc5c(c4)CC(=O)N5)c(-c4ccccc4)nn23)CC1 [Example 189, 5-[7-(4-Methoxy-1-piperidyl)-2-phenyl-pyrazolo[1,5-c]pyrimidin-3-yl]indolin-2-one]
0.2 | O=C1Cc2cc(-c3c(-c4ccc(F)cc4)nn4c(N5CCC(F)CC5)nccc34)ccc2N1 [Example 190, 5-[2-(4-Fluorophenyl)-7-(4-fluoro-1-piperidyl)pyrazolo[1,5-c]pyrimidin-3-yl]indolin-2-one]
2.51 | COC1CN(c2nccc3c(-c4ccc5c(c4)CC(=O)N5)c(-c4ccccc4)nn23)C1 [Example 191, 5-[7-(3-Methoxyazetidin-1-yl)-2-phenyl-pyrazolo[1,5-c]pyrimidin-3-yl]indolin-2-one]
31.6 | CC(C)Oc1nccc2c(-c3ccc4c(c3)CC(=O)N4)c(-c3ccccc3)nn12 [Example 194, 5-(7-Isopropoxy-2-phenyl-pyrazolo[1,5-c]pyrimidin-3-yl)indolin-2-one]
316 | COC1CN(c2nccc3c(-c4ccc5c(c4)CC(=O)N5)c(C4CCCC4)nn23)C1 [Example 195, 5-[2-Cyclopentyl-7-(3-methoxyazetidin-1-yl)pyrazolo[1,5-c]pyrimidin-3-yl]indolin-2-one]
158 | O=C1Cc2cc(-c3c(C4CCCC4)nn4c(N5CC(F)C5)nccc34)ccc2N1 [Example 196, 5-[2-Cyclopentyl-7-(3-fluoroazetidin-1-yl)pyrazolo[1,5-c]pyrimidin-3-yl]indolin-2-one]
1.26 | CO[C@H]1CCN(c2nccc3c(-c4ccc5c(c4)CC(=O)N5)c(-c4ccccc4)nn23)C1 [Example 197, 5-[7-[(3S)-3-Methoxypyrrolidin-1-yl]-2-phenyl-pyrazolo[1,5-c]pyrimidin-3-yl]indolin-2-one]
3.16 | Cc1cc2c(-c3ccc4c(c3)CC(=O)N4)c(-c3ccccc3)nn2c(N2CCOCC2)n1 [Example 198, 5-(5-Methyl-7-morpholino-2-phenyl-pyrazolo[1,5-c]pyrimidin-3-yl)indolin-2-one]
316 | CC(C)(C)c1nn2c(N3CC4(COC4)C3)nccc2c1-c1ccc2c(c1)CC(=O)N2 [Example 199, 5-[2-tert-Butyl-7-(6-oxa-2-azaspiro[3.3]heptan-2-yl)pyrazolo[1,5-c]pyrimidin-3-yl]indolin-2-one]
3.16 | O=C1Cc2cc(-c3c(-c4ccccc4)nn4c(N5CC(F)C5)nccc34)ccc2N1 [Example 200, 5-[7-(3-Fluoroazetidin-1-yl)-2-phenyl-pyrazolo[1,5-c]pyrimidin-3-yl]indolin-2-one]
1 | O=C1Cc2cc(-c3c(-c4ccccc4)nn4c(N5CCOCC5)nccc34)ccc2N1 [Example 201, 5-(7-Morpholino-2-phenyl-pyrazolo[1,5-c]pyrimidin-3-yl)indolin-2-one]
2.51 | CO[C@@H]1CCN(c2nccc3c(-c4ccc5c(c4)CC(=O)N5)c(-c4ccccc4)nn23)C1 [Example 202, 5-[7-[(3R)-3-Methoxypyrrolidin-1-yl]-2-phenyl-pyrazolo[1,5-c]pyrimidin-3-yl]indolin-2-one]

IC50 [nM] | SMILES
63.1 | O=C1Cc2cc(-c3c(C4CCCC4)nn4c(N5CCOCC5)nccc34)ccc2N1 [Example 203, 5-(2-Cyclopentyl-7-morpholino-pyrazolo[1,5-c]pyrimidin-3-yl)indolin-2-one]
631 | O=C1Cc2cc(-c3c(C4CCCC4)nn4c(N5CC(O)C5)nccc34)ccc2N1 [Example 205, 5-[2-Cyclopentyl-7-(3-hydroxyazetidin-1-yl)pyrazolo[1,5-c]pyrimidin-3-yl]indolin-2-one]
398 | COc1nccc2c(-c3ccc4c(c3)CC(=O)N4)c(-c3ccccc3)nn12 [Example 206, 5-(7-Methoxy-2-phenyl-pyrazolo[1,5-c]pyrimidin-3-yl)indolin-2-one]
0.398 | O=C1Cc2cc(-c3c(-c4ccccc4)nn4c(N5CCOCC5)ncc(Br)c34)ccc2N1 [Example 207, 5-(4-Bromo-7-morpholino-2-phenyl-pyrazolo[1,5-c]pyrimidin-3-yl)indolin-2-one]
0.126 | Cc1cnc(N2CCOCC2)n2nc(-c3ccccc3)c(-c3ccc4c(c3)CC(=O)N4)c12 [Example 208, 5-(4-Methyl-7-morpholino-2-phenyl-pyrazolo[1,5-c]pyrimidin-3-yl)indolin-2-one]
2 | N#Cc1ccc(-c2nc3c(N4CCNC(=O)C4)nccn3c2-c2ccc3[nH]ncc3c2)cc1 [Example 209, 4-[3-(1H-Indazol-5-yl)-8-(3-oxopiperazin-1-yl)imidazo[1,2-a]pyrazin-2-yl]benzonitrile]
20 | N#Cc1ccc(-c2nc3c(N4CCNC(=O)C4)nccn3c2-c2ccc3c(c2)CC(=O)N3)cc1 [Example 210, 4-[3-(2-Oxoindolin-5-yl)-8-(3-oxopiperazin-1-yl)imidazo[1,2-a]pyrazin-2-yl]benzonitrile]
3.98 | N#Cc1ccc(-c2nc3c(N4CCNC(=O)C4)nccn3c2-c2ccc3[nH]c(=O)[nH]c3c2)cc1 [Example 211, 4-[3-(2-Oxo-1,3-dihydrobenzimidazol-5-yl)-8-(3-oxopiperazin-1-yl)imidazo[1,2-a]pyrazin-2-yl]benzonitrile]
0.0794 | Cc1cnc(N2CCOCC2)n2nc(-c3ccccc3)c(-c3ccc4[nH]ncc4c3)c12 [Example 212, 4-[3-(1H-Indazol-5-yl)-4-methyl-2-phenyl-pyrazolo[1,5-c]pyrimidin-7-yl]morpholine]
0.0631 | COC1CCN(c2nccc3c(-c4ccc5[nH]c(=O)sc5c4)c(-c4ccccc4)nn23)CC1 [Example 213, 6-[7-(4-Methoxy-1-piperidyl)-2-phenyl-pyrazolo[1,5-c]pyrimidin-3-yl]-3H-1,3-benzothiazol-2-one]
31.6 | O=C(NC1CCCCC1)c1nc2c(N3CCOCC3)nccn2c1-c1ccc2[nH]c(=O)[nH]c2c1 [Example 214, N-Cyclohexyl-8-morpholino-3-(2-oxo-1,3-dihydrobenzimidazol-5-yl)imidazo[1,2-a]pyrazine-2-carboxamide]
39.8 | O=C1Cc2cc(-c3c(-c4ccncc4)nc4c(N5CCC(O)CC5)nccn34)ccc2N1 [Example 215, 5-[8-(4-Hydroxy-1-piperidyl)-2-(4-pyridyl)imidazo[1,2-a]pyrazin-3-yl]indolin-2-one]
501 | O=c1[nH]c2ccc(-c3c(C4CC4)nc4cnc(C(F)(F)F)cn34)cc2s1 [Example 216, 6-[2-Cyclopropyl-6-(trifluoromethyl)imidazo[1,2-a]pyrazin-3-yl]-3H-1,3-benzothiazol-2-one]
100 | O=C1Cc2cc(-c3c(-c4ccccc4)nc4cnc(C(F)(F)F)cn34)ccc2N1 [Example 218, 5-[2-Phenyl-6-(trifluoromethyl)imidazo[1,2-a]pyrazin-3-yl]indolin-2-one]
6310 | O=C1Cc2cc(-c3c(C4CC4)nc4cnc(C(F)(F)F)cn34)ccc2N1 [Example 219, 5-[2-Cyclopropyl-6-(trifluoromethyl)imidazo[1,2-a]pyrazin-3-yl]indolin-2-one]
63.1 | CC(C)(C)c1nc2c(N3CCC(=O)CC3)nccn2c1-c1ccc2c(c1)CC(=O)N2 [Example 220, 5-[2-tert-Butyl-8-(4-oxo-1-piperidyl)imidazo[1,2-a]pyrazin-3-yl]indolin-2-one]
31.6 | O=C(Nc1ccccn1)c1nc2c(N3CCOCC3)nccn2c1-c1ccc2[nH]c(=O)[nH]c2c1 [Example 221, 8-Morpholino-3-(2-oxo-1,3-dihydrobenzimidazol-5-yl)-N-(2-pyridyl)imidazo[1,2-a]pyrazine-2-carboxamide]
12.6 | O=C1Cc2cc(-c3c(-c4ccccc4)nn4cnc(C(F)(F)F)cc34)ccc2N1 [Example 222, 5-[2-Phenyl-5-(trifluoromethyl)pyrazolo[1,5-c]pyrimidin-3-yl]indolin-2-one]

SMILES | IC50 [nM]
O=C1Cc2cc(-c3c(-c4ccccc4)nn4c(OC5CCCC5)nccc34)ccc2N1 [Example 192, 5-[7-(Cyclopentoxy)-2-phenyl-pyrazolo[1,5-c]pyrimidin-3-yl]indolin-2-one] | 7.94
